# Assay results taken from patent US20170283804A1, “ANTISENSE COMPOUNDS AND USES THEREOF” (Ionis Pharmaceuticals, Inc., priority 2014, published 2017).
# Oligonucleotides are written 5' to 3', each unit as a sugar letter and its base; * is a phosphorothioate linkage, no mark a phosphodiester; rarer units and linkages stand in square brackets, end groups in braces. Plain capitals give the bases only. e = 2'-O-(2-methoxyethyl) (MOE); k = constrained ethyl (cEt); [5mC] = 5-methylcytosine; d = 2'-deoxy (DNA)
# Key:
# [1] = tested on: mouse Metastasis associated lung adenocarcinoma transcript 1 (Malat-1); assay: In vivo activity of Isis No. 556062 with and without FTY-720 pre-treatment (Malat-1 RNA in tissues, Example 2); details: mice
# Description: Isis No. 556062 targets the mouse Metastasis associated lung adenocarcinoma transcript 1 (Malat-1, GENBANK accession number NR_002847.2, SEQ ID NO: 3). The sequence of Isis No. 556062 is 5′-GGCTTAATGCAGCATT-3′ (SEQ ID NO: 4). It is a 3-10-3 (S)-cEt gapmer, wherein the three nucleosides at the 5′-end and the three nucleosides at the 3′-end comprise 2′-O—CH(CH3)-4′ modifications, and the ten middle nucleosides are 2′-deoxynucleosides. All internucleoside linkages are phosphorothioate linkages. The cytosine bases are 5-methylcytosines.
# Malat-1 RNA levels were determined using real-time PCR and RIBOGREEN® RNA quantification reagent (Molecular Probes, Inc. Eugene, OR) according to standard protocols. Malat-1 RNA levels were determined relative to total RNA (using Ribogreen), prior to normalization to PBS-treated control. The results are presented in Table 16 as average Malat-1 RNA levels for each treatment group. Results for groups that received Isis No. 556062 alone are relative the group that received only PBS, and results for groups that received Isis No. 556062 and FTY-720 are relative to the group that received 3 mg/kg FTY-720 and PBS in place of Isis No. 556062.
# [2] = tested on: mouse Metastasis associated lung adenocarcinoma transcript 1 (Malat-1); assay: In vivo dose response of Isis No. 556062 with and without FTY-720 pre-treatment (Malat-1 RNA, Example 3); details: mice; liver; 1 mg/kg FTY-720 i.p. once a day for 11 days; Isis No. 556062 subcutaneous on day 10
# Method: Each treatment group consisted of 4 animals.
# Malat-1 RNA levels were determined as described in Example 2. The results are presented in Table 18 as average Malat-1 RNA levels for each treatment group. Results for groups that received Isis No. 556062 alone are relative the group that received only PBS, and results for groups that received Isis No. 556062 and 1 mg/kg FTY-720 are relative to the group that received 1 mg/kg FTY-720 and PBS in place of Isis No. 556062.
# [3] = tested on: mouse Scavenger Receptor Class B, Number 1 (SRB-1) transcript; assay: Isis No. 353382 activity in MHT cells with or without bioactive lipid pre-treatment (SRB-1 mRNA, real-time PCR); assay type: cell-based
# Description: Antisense oligonucleotides were synthesized using standard solid phase oligonucleotide synthetic methods. Isis No. 353382 targets the mouse Scavenger Receptor Class B, Number 1 (SRB-1) transcript (GENBANK accession number NM_016741.1, SEQ ID NO: 1). The sequence of Isis No. 353382 is 5′-[…]-3′ (SEQ ID NO: 2). It is a 5-10-5 MOE gapmer, wherein the five nucleosides at the 5′-end and the five nucleosides at the 3′-end comprise 2′-methoxyethyl (MOE) modifications, and the ten middle nucleosides are 2′-deoxynucleosides. All internucleoside linkages are phosphorothioate linkages. The cytosine bases are 5-methylcytosines.
# In order to test the effect of pre-treatment with bioactive lipids on Isis No. 353382 activity in vitro, mouse hepatocellular SV40 large T-antigen (MHT) carcinoma cells were treated with 200 nM myriocin or 3 μM FTY-720 was added 2 hours before Isis No. 353382 at the concentrations shown in Tables 1 and 2 below. Cells were lysed 24 hours following oligonucleotide addition, and total RNA was purified. SRB-1 mRNA levels were determined using real-time PCR and RIBOGREEN® RNA quantification reagent (Molecular Probes, Inc. Eugene, Oreg.) according to standard protocols.
compound,measurement,setting,value
"CCCCCCCCc1ccc(CCC(N)(CO)CO)cc1 [FTY-720, 2-amino-2-[2-(4-octylphenyl)ethyl]propane-1,3-diol, reference compound]",Effect of pre-treatment on the effect of Isis No. 556062 in vivo,"[1]; liver and fat, FTY-720 0.3, 1 or 3 mg/kg i.p. once a day for 11 days, Isis No. 556062 i.p. on day 10",potentiated the effect of Isis No. 556062
same,Effect of pre-treatment on the effect of Isis No. 556062 in vivo,[2],potentiated the effect of Isis No. 556062
same,Effect of pre-treatment on the effect of Isis No. 353382 in vitro,[3]; 3 μM FTY-720 2 hours before Isis No. 353382,potentiated the effect of Isis No. 353382
"Isis No. 556062: 3-10-3 (S)-cEt gapmer 5′-GGCTTAATGCAGCATT-3′ (SEQ ID NO: 4), all phosphorothioate linkages, 5-methylcytosines; targets mouse Malat-1 (antisense kG*kG*k[5mC]*dT*dT*dA*dA*dT*dG*d[5mC]*dA*dG*d[5mC]*kA*kT*kT)",Average Malat-1 RNA,"[1]; Fat, 2 mg/kg Isis No. 556062 i.p., 0 mg/kg FTY-720",89 % control
same,Average Malat-1 RNA,"[1]; Fat, 2 mg/kg Isis No. 556062 i.p., 0.3 mg/kg FTY-720 i.p. daily",54 % control
same,Average Malat-1 RNA,"[1]; Fat, 2 mg/kg Isis No. 556062 i.p., 1 mg/kg FTY-720 i.p. daily",69 % control
same,Average Malat-1 RNA,"[1]; Fat, 2 mg/kg Isis No. 556062 i.p., 3 mg/kg FTY-720 i.p. daily",45 % control
same,Average Malat-1 RNA,"[1]; Fat, 10 mg/kg Isis No. 556062 i.p., 0 mg/kg FTY-720",63 % control
same,Average Malat-1 RNA,"[1]; Fat, 10 mg/kg Isis No. 556062 i.p., 0.3 mg/kg FTY-720 i.p. daily",39 % control
same,Average Malat-1 RNA,"[1]; Fat, 10 mg/kg Isis No. 556062 i.p., 1 mg/kg FTY-720 i.p. daily",32 % control
same,Average Malat-1 RNA,"[1]; Fat, 10 mg/kg Isis No. 556062 i.p., 3 mg/kg FTY-720 i.p. daily",39 % control
same,Average Malat-1 RNA,"[1]; Liver, 2 mg/kg Isis No. 556062 i.p., 0 mg/kg FTY-720",36 % control
same,Average Malat-1 RNA,"[1]; Liver, 2 mg/kg Isis No. 556062 i.p., 0.3 mg/kg FTY-720 i.p. daily",30 % control
same,Average Malat-1 RNA,"[1]; Liver, 2 mg/kg Isis No. 556062 i.p., 1 mg/kg FTY-720 i.p. daily",23 % control
same,Average Malat-1 RNA,"[1]; Liver, 2 mg/kg Isis No. 556062 i.p., 3 mg/kg FTY-720 i.p. daily",24 % control
same,Average Malat-1 RNA,"[1]; Liver, 10 mg/kg Isis No. 556062 i.p., 0 mg/kg FTY-720",12 % control
same,Average Malat-1 RNA,"[1]; Liver, 10 mg/kg Isis No. 556062 i.p., 0.3 mg/kg FTY-720 i.p. daily",9 % control
same,Average Malat-1 RNA,"[1]; Liver, 10 mg/kg Isis No. 556062 i.p., 1 mg/kg FTY-720 i.p. daily",7 % control
same,Average Malat-1 RNA,"[1]; Liver, 10 mg/kg Isis No. 556062 i.p., 3 mg/kg FTY-720 i.p. daily",10 % control
"Isis No. 353382: 5-10-5 MOE gapmer 5′-GCTTCAGTCATGACTTCCTT-3′ (SEQ ID NO: 2), all phosphorothioate linkages, 5-methylcytosines; targets mouse SRB-1 transcript (antisense eG*e[5mC]*eT*eT*e[5mC]*dA*dG*dT*d[5mC]*dA*dT*dG*dA*d[5mC]*dT*eT*e[5mC]*e[5mC]*eT*eT)",Average SRB-1 mRNA level in cells receiving 200 nM myriocin,"[3]; 0.16 nM Isis No. 353382, 200 nM myriocin added 2 hours before, 24 hours",73.5 % control
same,Average SRB-1 mRNA level in cells receiving 3 μM FTY-720,"[3]; 0.16 nM Isis No. 353382, 3 μM FTY-720 added 2 hours before, 24 hours",85.5 % control
same,Average SRB-1 mRNA level in cells receiving no pre-treatment,"[3]; 0.16 nM Isis No. 353382, 24 hours, no pre-treatment",96.9 % control
same,Average SRB-1 mRNA level in cells receiving no pre-treatment,"[3]; 0.16 nM Isis No. 353382, no pre-treatment, 24 hours",91.8 % control
same,Average SRB-1 mRNA level in cells receiving 200 nM myriocin,"[3]; 0.64 nM Isis No. 353382, 200 nM myriocin added 2 hours before, 24 hours",73.2 % control
same,Average SRB-1 mRNA level in cells receiving 3 μM FTY-720,"[3]; 0.64 nM Isis No. 353382, 3 μM FTY-720 added 2 hours before, 24 hours",77.8 % control
same,Average SRB-1 mRNA level in cells receiving no pre-treatment,"[3]; 0.64 nM Isis No. 353382, 24 hours, no pre-treatment",95.9 % control
same,Average SRB-1 mRNA level in cells receiving no pre-treatment,"[3]; 0.64 nM Isis No. 353382, no pre-treatment, 24 hours",87.8 % control
same,Average SRB-1 mRNA level in cells receiving 200 nM myriocin,"[3]; 3.2 nM Isis No. 353382, 200 nM myriocin added 2 hours before, 24 hours",46.8 % control
same,Average SRB-1 mRNA level in cells receiving 3 μM FTY-720,"[3]; 3.2 nM Isis No. 353382, 3 μM FTY-720 added 2 hours before, 24 hours",65.9 % control
same,Average SRB-1 mRNA level in cells receiving no pre-treatment,"[3]; 3.2 nM Isis No. 353382, 24 hours, no pre-treatment",72.2 % control
same,Average SRB-1 mRNA level in cells receiving no pre-treatment,"[3]; 3.2 nM Isis No. 353382, no pre-treatment, 24 hours",80.9 % control
same,Average SRB-1 mRNA level in cells receiving 200 nM myriocin,"[3]; 16 nM Isis No. 353382, 200 nM myriocin added 2 hours before, 24 hours",36.1 % control
same,Average SRB-1 mRNA level in cells receiving 3 μM FTY-720,"[3]; 16 nM Isis No. 353382, 3 μM FTY-720 added 2 hours before, 24 hours",46.5 % control
same,Average SRB-1 mRNA level in cells receiving no pre-treatment,"[3]; 16 nM Isis No. 353382, 24 hours, no pre-treatment",46.3 % control
same,Average SRB-1 mRNA level in cells receiving no pre-treatment,"[3]; 16 nM Isis No. 353382, no pre-treatment, 24 hours",74.3 % control
same,Average SRB-1 mRNA level in cells receiving 200 nM myriocin,"[3]; 80 nM Isis No. 353382, 200 nM myriocin added 2 hours before, 24 hours",27.2 % control
same,Average SRB-1 mRNA level in cells receiving 3 μM FTY-720,"[3]; 80 nM Isis No. 353382, 3 μM FTY-720 added 2 hours before, 24 hours",27.1 % control
same,Average SRB-1 mRNA level in cells receiving no pre-treatment,"[3]; 80 nM Isis No. 353382, 24 hours, no pre-treatment",32.3 % control
same,Average SRB-1 mRNA level in cells receiving no pre-treatment,"[3]; 80 nM Isis No. 353382, no pre-treatment, 24 hours",53.5 % control
same,Average SRB-1 mRNA level in cells receiving 200 nM myriocin,"[3]; 400 nM Isis No. 353382, 200 nM myriocin added 2 hours before, 24 hours",23.5 % control
same,Average SRB-1 mRNA level in cells receiving 3 μM FTY-720,"[3]; 400 nM Isis No. 353382, 3 μM FTY-720 added 2 hours before, 24 hours",23.6 % control
same,Average SRB-1 mRNA level in cells receiving no pre-treatment,"[3]; 400 nM Isis No. 353382, 24 hours, no pre-treatment",26.8 % control
same,Average SRB-1 mRNA level in cells receiving no pre-treatment,"[3]; 400 nM Isis No. 353382, no pre-treatment, 24 hours",52.2 % control
same,Average SRB-1 mRNA level in cells receiving 200 nM myriocin,"[3]; 2,000 nM Isis No. 353382, 200 nM myriocin added 2 hours before, 24 hours",19.6 % control
same,Average SRB-1 mRNA level in cells receiving 3 μM FTY-720,"[3]; 2,000 nM Isis No. 353382, 3 μM FTY-720 added 2 hours before, 24 hours",16.8 % control
same,Average SRB-1 mRNA level in cells receiving no pre-treatment,"[3]; 2,000 nM Isis No. 353382, 24 hours, no pre-treatment",22.4 % control
same,Average SRB-1 mRNA level in cells receiving no pre-treatment,"[3]; 2,000 nM Isis No. 353382, no pre-treatment, 24 hours",44.9 % control
same,Average SRB-1 mRNA level in cells receiving 200 nM myriocin,"[3]; 10,000 nM Isis No. 353382, 200 nM myriocin added 2 hours before, 24 hours",15.6 % control
same,Average SRB-1 mRNA level in cells receiving 3 μM FTY-720,"[3]; 10,000 nM Isis No. 353382, 3 μM FTY-720 added 2 hours before, 24 hours",12.1 % control
same,Average SRB-1 mRNA level in cells receiving no pre-treatment,"[3]; 10,000 nM Isis No. 353382, 24 hours, no pre-treatment",16.6 % control
same,Average SRB-1 mRNA level in cells receiving no pre-treatment,"[3]; 10,000 nM Isis No. 353382, no pre-treatment, 24 hours",36.0 % control
"CCCCCCC(=O)CCCCCC/C=C/C[C@@H](O)[C@H](O)[C@@](N)(CO)C(=O)O [myriocin, reference compound]",Effect of pre-treatment on the effect of Isis No. 353382 in vitro,[3]; 200 nM myriocin 2 hours before Isis No. 353382,potentiated the effect of Isis No. 353382
